Experimental data reported in the supplement of paper PMC6335503.

Experiments:
Experiment in all cases: cell viability, percent of DMSO control (CellTiter-Glo); higher = more viable cells
Details in all cases: 72 h
[1] = system: DFTD cell line T3 (06/0368)
Experimental: (§1)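 Eight-point dose titration of 41 screen hits in triplicate wells on four Tasmanian devil DFTD tumour cell lines (T1-T4) and devil fibroblasts, 384-well plates. Viability was read by CellTiter-Glo (ATP) after 72 h at 37 °C. Percent of control per plate: DMSO wells = 100%, positive-control wells = 0%.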

[2] = system: DFTD cell line T4 (07/0192)
Experimental: as §1

[3] = system: DFTD cell line T2 (05/2569)
Experimental: as §1

[4] = system: DFTD cell line T1 (06/2887)
Experimental: as §1

CN(C)C/C=C/C(=O)Nc1cc2c(Nc3ccc(F)c(Cl)c3)ncnc2cc1O[C@H]1CCOC1 [Afatinib (BIBW2992)]
cell viability [%]
Details	0.00617 µM	0.0185 µM	0.0556 µM	0.166667 µM	0.5 µM	1.5 µM	4.5 µM	13.5 µM
[1]	105	84.4	50.4	34	31.7	31.5	24	6.87
[2]	98.9	81.1	46.3	18.2	13.9	18.8	5.93	1.47
[3]	112	89.2	72.7	39.8	43.4	33.4	30.8	5.92
[4]	102	58.8	29	19	24.5	18.8	4.12	1.43

C=CC(=O)Nc1cc2c(Nc3ccc(F)c(Cl)c3)ncnc2cc1OCCCN1CCOCC1 [Canertinib (CI-1033)]
cell viability [%]
Details	0.00617 µM	0.0185 µM	0.0556 µM	0.166667 µM	0.5 µM	1.5 µM	4.5 µM	13.5 µM
[1]	92.6	110	113	110	89	49.7	32.5	38.9
[2]	104	107	107	107	86.1	39.8	24	21
[3]	120	106	116	98	91.1	33.5	33.7	13.8
[4]	118	106	109	98.1	42.6	18.3	18.2	8.82

Nc1ccc(F)cc1NC(=O)c1ccc(CNC(=O)/C=C/c2cccnc2)cc1 [Chidamide]
cell viability [%]
Details	0.0309 µM	0.0926 µM	0.277778 µM	0.833333 µM	2.5 µM	7.5 µM	22.5 µM	67.5 µM
[1]	102	78.9	56.3	39	18.9	18.2	14.3	11.1
[2]	112	101	83	48.5	22.2	19.1	15.3	20.2
[3]	102	79.7	69.8	29.6	11.9	9.75	7.82	9.23
[4]	111	97.4	38.5	28.7	9.38	-0.502	13.2	18.1

CC1(C)CC(=O)C2=C(C1)NC(=S)NC2c1cccc(O)c1 (stereo not given) [Dimethylenastron]
cell viability [%]
Details	0.00617 µM	0.0185 µM	0.0556 µM	0.166667 µM	0.5 µM	1.5 µM	4.5 µM	13.5 µM
[1]	101	119	102	110	108	94.4	103	86.2
[2]	118	92.6	106	105	93.9	81.3	62.2	61.7
[3]	107	130	117	104	92.3	79.2	73.7	71.3
[4]	113	126	115	102	70.9	50.1	42.5	33.8

COc1cccc2c1C(=O)c1c(O)c3c(c(O)c1C2=O)C[C@@](O)(C(=O)CO)C[C@@H]3O[C@H]1C[C@H](N)[C@H](O)[C@H](C)O1 [Doxorubicin]
cell viability [%]
Details	0.00617 µM	0.0185 µM	0.0556 µM	0.166667 µM	0.5 µM	1.5 µM	4.5 µM	13.5 µM
[1]	112	96.6	98.6	77	66.5	21.6	-3.26	4.78
[2]	104	106	96.8	84.9	53.4	2.44	-5.87	-5.47
[3]	108	98.7	96.5	88.7	64.5	13.4	-8.33	-4.69
[4]	109	105	104	85.8	61.2	2.77	-6.73	-3.65

C#Cc1cccc(Nc2ncnc3cc(OCCOC)c(OCCOC)cc23)c1.Cl [Erlotinib hydrochloride]
cell viability [%]
Details	0.00617 µM	0.0185 µM	0.0556 µM	0.166667 µM	0.5 µM	1.5 µM	4.5 µM	13.5 µM
[1]	121	105	122	93.5	87.4	60.8	47.1	30.7
[2]	117	114	119	99.9	104	61.7	47.2	19.7
[3]	124	142	118	90.4	98.83	56.3	33.7	18.2
[4]	138	126	104	87.3	86.4	38.1	29.1	14.2

C#Cc1cccc(Nc2ncnc3cc(OCCOC)c(OCCOC)cc23)c1 [Erlotinib]
cell viability [%]
Details	0.0123 µM	0.037 µM	0.111111111 µM	0.333333 µM	1 µM	3 µM	9 µM	27 µM
[1]	101	108	99.9	81.5	68.8	49.3	33.1	40.5
[2]	88.3	115	117	79.3	85.1	43.3	24.4	22
[3]	104	80.4	102	89.2	72.1	46.1	24.3	34.5
[4]	108	104	113	101	57.3	35.3	19.8	17

COc1cc2c(cc1-c1c(C)noc1C)ncc1[nH]c(=O)n([C@H](C)c3ccccn3)c12 [I-BET151]
cell viability [%]
Details	0.0309 µM	0.0926 µM	0.277778 µM	0.833333 µM	2.5 µM	7.5 µM	22.5 µM	67.5 µM
[1]	102	106	117	64.5	47.6	35.1	36.6	45.2
[2]	87.7	107	87.5	47.8	49.6	38.9	42.9	53
[3]	95.3	120	141	81.4	50.3	21.1	22.3	32.5
[4]	119	126	92.8	31.3	28.6	16.7	23	37.9

Cc1cc(Nc2ncnc3ccc(NC4=NC(C)(C)CO4)cc23)ccc1Oc1ccn2ncnc2c1 [Irbinitinib(ARRY-380; ONT-380)]
cell viability [%]
Details	0.00617 µM	0.0185 µM	0.0556 µM	0.166667 µM	0.5 µM	1.5 µM	4.5 µM	13.5 µM
[1]	112	116	111	98.9	67.1	54.9	45.3	48.6
[2]	106	109	105	92.6	60.1	46.2	43.5	36.6
[3]	102	90.6	98.1	95.7	65.7	45.7	50.6	42.5
[4]	113	111	94.9	89.7	41.5	30.3	33	33.4

CS(=O)(=O)CCNCc1ccc(-c2ccc3ncnc(Nc4ccc(OCc5cccc(F)c5)c(Cl)c4)c3c2)o1.Cc1ccc(S(=O)(=O)O)cc1.Cc1ccc(S(=O)(=O)O)cc1.O [Lapatinib ditosylate monohydrate]
cell viability [%]
Details	0.00617 µM	0.0185 µM	0.0556 µM	0.166667 µM	0.5 µM	1.5 µM	4.5 µM	13.5 µM
[1]	104	94.6	92.3	85.4	69.8	38.4	48.1	34
[2]	98.9	94	94.6	68.7	60.1	29.7	38.5	24.5
[3]	100	88.5	87.2	74.9	58.2	41.5	40.8	24.9
[4]	107	96.9	92.2	59.3	38.8	27.7	31.9	17.9

CS(=O)(=O)CCNCc1ccc(-c2ccc3ncnc(Nc4ccc(OCc5cccc(F)c5)c(Cl)c4)c3c2)o1 [Lapatinib]
cell viability [%]
Details	0.0123 µM	0.037 µM	0.111111111 µM	0.333333 µM	1 µM	3 µM	9 µM	27 µM
[1]	80.9	110	84.9	70.4	42.1	44.9	31.7	5.72
[2]	81.5	113	84.5	53	32	29.4	20.7	16.9
[3]	78.4	133	100	68.6	40.4	44.6	21.6	8.25
[4]	87.5	112	87.1	42.6	30.1	28.2	21.2	12.5

C=CC(=O)Nc1cc(Nc2ncc(Cl)c(-c3c[nH]c4ccccc34)n2)c(OC)cc1N(C)CCN(C)C [Mutant EGFR inhibitor]
cell viability [%]
Details	0.00617 µM	0.0185 µM	0.0556 µM	0.166667 µM	0.5 µM	1.5 µM	4.5 µM	13.5 µM
[1]	87	93	86.5	39.6	38.2	22	12.8	26.6
[2]	75.6	86.8	89	35.9	20.9	6.23	3.77	19.9
[3]	98.2	93.9	94.8	50.8	37.3	16.6	5.63	11.5
[4]	94.7	83.8	62.6	29.1	26.6	9.39	1.63	7.99

CCOc1cc2ncc(C#N)c(Nc3ccc(OCc4ccccn4)c(Cl)c3)c2cc1NC(=O)/C=C/CN(C)C [Neratinib(HKI-272)]
cell viability [%]
Details	0.00617 µM	0.0185 µM	0.0556 µM	0.166667 µM	0.5 µM	1.5 µM	4.5 µM	13.5 µM
[1]	92	102	119	96.1	92.2	39.8	42.4	36.5
[2]	99.8	88.3	114	93.5	62.4	22.9	25.4	18.8
[3]	97	98	154	119	93.3	45.2	45.7	39.1
[4]	97.8	92.2	125	90.5	50.7	29	29.2	32.5

Cc1sc2c(c1C)C(c1ccc(Cl)cc1)=N[C@@H](CC(=O)Nc1ccc(O)cc1)c1nnc(C)n1-2 [OTX015]
cell viability [%]
Details	0.0123 µM	0.037 µM	0.111111111 µM	0.333333 µM	1 µM	3 µM	9 µM	27 µM
[1]	104	120	84.2	79.8	57.3	50.5	46.8	54.8
[2]	93.3	85.1	69.9	72.7	51.1	55.9	47.1	56.2
[3]	105	128	97.9	104	70.1	44.1	36.1	45.3
[4]	103	100	74.2	59.1	31.2	36	30.2	36.9

CCOc1cc2ncc(C#N)c(Nc3ccc(F)c(Cl)c3)c2cc1NC(=O)/C=C/CN(C)C [Pelitinib (EKB-569)]
cell viability [%]
Details	0.00617 µM	0.0185 µM	0.0556 µM	0.166667 µM	0.5 µM	1.5 µM	4.5 µM	13.5 µM
[1]	81.3	125	103	76.4	58.9	39.5	33.4	36.2
[2]	83	113	97.4	77.8	53.1	18.3	19.6	22.1
[3]	79.7	121	111	98.2	42.1	42.4	33.2	8.16
[4]	82.1	115	93.5	76.8	22	30.3	34.1	-2.36
